# Patent publication US20240279684A1, “CYTOSOLIC DELIVERY OF GENOME EDITING TOOLS” (SAPREME TECHNOLOGIES B.V., priority 2021, published 2024)
# System: Neuro-2A-cells
# Test: Slc knock-out / GFP-Puromycin donor knock-in co-transfection, GFP fluorescence
# Assay type: cell-based, murine
# Details: for transfection efficiency: PDD (Cas9-gRNA(Slc26a4)-DNA, GFP-Puromycin-LDS)
# Protocol: For further knock-out experiments, GE1741 and Neuro-2A cells were tested. The integration of a linear donor sequence (LDS) containing the gene for GFP into the genomic DNA was assessed using three kits from Origene (Herford, Germany): The Slcl9a3-KN2.0 (CAT #: KN515911), the Slc25a24-KN2.0 (CAT #: KN515970) and the Slc26a4-KN2.0 (CAT #: KN516006), which kits all three were mouse gene knock-out kits via CRISPR, non-homology mediated. The kits contained all-in-one plasmids, coding for Cas9 and the target specific sgRNAs. The Slc26a4 kit targeted the solute carrier family 26, member 4 in the chromosome 12. The indel efficiency by targeting the locus Slc26a4 could be already shown in Neuro-2A cells (Ryu et al., 2018), and for the linear-donor-kits (Slc19a3, Slc25a24) two different sgRNA-sequences were tested. […] Thus, for the knock-out of different solute carrier genes (Sic) in Neuro-2A-cells via CRISPR/Cas9, neuro-2A-cells were transfected with different kits in order to compare the efficiency of different targets (knocked-out gene) and different integration techniques (see FIG. 8 and FIG. 10).
# FIG. 9A-D Transfection efficiency of saponin-mediated PDD (Cas9-gRNA (Slc26a4)-DNA, LDS-DNA)-transfections. A: Neuro-2A-cells were transfected with PDD-nanoplexes (Cas9-gRNA (Slc26a4)-DNA, GFP-Puromycin-LDS, 4:1 and 8:1 mass ratio when the mass of the peptide and the DNA are considered), with and without GE1741-Co-administration. The application of GE1741 led to a transfection efficiency of 20% and 30%, respectively, for the 4:1 and 8:1 mass ratio. Lipofectamin3000 served as positive control. B-D: Distinct fluorescence intensity increase of Neuro-2A-cells after saponin-mediated GFP-gene knock-in. n≥3; *: significant difference compared to the saponin-free transfection (only nuclease), U-test was performed. FIG. 9B: negative control; FIG. 9C: PDD(Cas9-gRNA(Slc26a4)-DNA, Puro-GFP-LDS), 4:1); FIG. 9D: PDD(Cas9-gRNA(Slc26a4)-DNA, Puro-GFP-LDS), 4:1)+GE1741.
# FIG. 11A, B. Knockout of different solute carrier (Sic) in Neuro-2A-cells—homologous recombination vs. non-homologous recombination. Neuro-2A-cells were transfected using NHR kits and using HR kits in order to compare the efficiency for different targets and different integration techniques, under influence of the absence or presence of saponin GE1741 in the K16-peptide comprising nanoplexes. […] (A) co-transfection of plasmid DNA comprising nucleic acids encoding for Cas9 and gRNA(Slc26a4), and LDS DNA encoding for puromycin and green fluorescent protein (Puro-GFP-LDS). (B) co-transfection of plasmid DNA comprising nucleic acids encoding for Cas9 and gRNA(Slc), and donor template DNA encoding for puromycin and green fluorescent protein (Puro-GFP-DS) provided as DNA vector.
# The co-transfection of Neuro-2A-cells with the plasmid DNA encoding for the Cas9 and the gRNA, and the LDS encoding for the GFP and the Puromycin, was done in a poly-lysine K16 peptide—nucleic acid ratio of 4:1 and 8:1, and plasmid DNA and LDS was complexed equally (500 ng/well). Transfections of cells were performed with and without GE1741 in the cell culture medium in which the cells were cultured. The transfection efficiency under influence of the absence or presence of the saponin was compared to transfection under influence of the presence of Lipofectamin3000 during transfection of the cells.
# The integration of donor sequence into the genome can be performed via non-homologous recombination (‘NHR’) and homologous recombination (‘HR’). […]
structure (smiles),measurement,setting,value
CC(=O)OC1C(C)OC(OC2C(C)OC(OC(=O)C34CCC(C)(C)CC3C3=CCC5C6(C)CCC(OC7OC(C(=O)O)C(O)C(OC8OCC(O)C(O)C8O)C7OC7OC(CO)C(O)C(O)C7O)C(C)(C=O)C6CCC5(C)C3(C)CC4O)C(OC3OC(C)C(OC4OCC(O)C(OC5OCC(O)C(O)C5O)C4O)C(O)C3O)C2O)C(O)C1OC(C)=O (centres unmarked) [GE1741],GFP expression (in words),"HR-knock-in kits (Slc4a4, Slc11a2), circular donor",no GFP expression
same,transfection efficiency vs saponin-free transfection (in words),"NHR-knock-in kits with LDS (Slc26a4, Slc19a3, Slc25a24), U-test",significant increase of transfection efficiency
same,transfection efficiency,4:1 mass ratio,20%
same,transfection efficiency,8:1 mass ratio,30%
same,transfected cells expressing fluorescence,"co-transfection Cas9-gRNA plasmid + LDS, 500 ng/well each, ratio 4:1 and 8:1",over 30%
